Results from patent US12084420B2, “Indoline compounds for inhibiting KIF18A” (Volastra Therapeutics, Inc., priority 2021, dated 2024).
pIC50: −log10 of the molar value.

What follows are compounds tested against hKIF18A (1-374) (Homo sapiens (Human), UniProt Q8NI77) (assay: Inhibition of KIF18A microtubule-dependent ATPase activity (ADP-Glo)). Conditions: not given.
hKIF18A (1-374), sequence (Q8NI77 whole entry, looked up): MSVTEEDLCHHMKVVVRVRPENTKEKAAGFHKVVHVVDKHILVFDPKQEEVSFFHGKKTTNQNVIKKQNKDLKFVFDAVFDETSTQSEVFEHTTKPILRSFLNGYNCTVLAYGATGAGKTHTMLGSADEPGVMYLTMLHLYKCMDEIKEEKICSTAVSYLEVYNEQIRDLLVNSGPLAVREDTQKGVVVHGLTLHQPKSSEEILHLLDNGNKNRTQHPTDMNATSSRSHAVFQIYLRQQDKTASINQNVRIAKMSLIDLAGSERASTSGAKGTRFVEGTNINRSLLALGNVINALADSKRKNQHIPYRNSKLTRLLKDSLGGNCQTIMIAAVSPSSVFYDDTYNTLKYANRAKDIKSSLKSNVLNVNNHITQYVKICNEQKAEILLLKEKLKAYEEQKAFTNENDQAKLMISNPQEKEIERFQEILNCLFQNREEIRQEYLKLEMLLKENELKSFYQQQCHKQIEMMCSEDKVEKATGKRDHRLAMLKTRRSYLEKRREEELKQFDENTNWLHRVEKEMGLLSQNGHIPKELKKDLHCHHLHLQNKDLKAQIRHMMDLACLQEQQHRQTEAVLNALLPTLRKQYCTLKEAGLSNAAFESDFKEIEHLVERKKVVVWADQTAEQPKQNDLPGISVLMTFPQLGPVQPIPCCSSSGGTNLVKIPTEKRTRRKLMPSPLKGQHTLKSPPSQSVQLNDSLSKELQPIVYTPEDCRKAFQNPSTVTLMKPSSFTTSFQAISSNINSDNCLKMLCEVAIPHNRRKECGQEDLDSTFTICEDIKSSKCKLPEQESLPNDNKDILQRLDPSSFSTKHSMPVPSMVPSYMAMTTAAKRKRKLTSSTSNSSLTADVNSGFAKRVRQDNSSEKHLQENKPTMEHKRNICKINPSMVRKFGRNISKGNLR
hKIF18A (1-374), sequence (Q2XVP4 whole entry partner, looked up): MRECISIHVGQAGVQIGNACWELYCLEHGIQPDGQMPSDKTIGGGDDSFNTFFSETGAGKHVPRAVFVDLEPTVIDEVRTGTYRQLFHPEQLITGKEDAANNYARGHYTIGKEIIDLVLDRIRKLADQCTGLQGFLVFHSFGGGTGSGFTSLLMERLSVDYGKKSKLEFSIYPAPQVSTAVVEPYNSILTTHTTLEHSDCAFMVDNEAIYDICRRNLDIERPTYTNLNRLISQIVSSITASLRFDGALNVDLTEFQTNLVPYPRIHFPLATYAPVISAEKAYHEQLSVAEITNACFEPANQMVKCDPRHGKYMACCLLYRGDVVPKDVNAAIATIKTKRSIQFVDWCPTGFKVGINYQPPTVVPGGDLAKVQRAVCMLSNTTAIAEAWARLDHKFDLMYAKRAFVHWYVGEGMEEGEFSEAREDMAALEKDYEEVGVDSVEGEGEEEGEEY
hKIF18A (1-374), sequence (P02554 whole entry partner, looked up): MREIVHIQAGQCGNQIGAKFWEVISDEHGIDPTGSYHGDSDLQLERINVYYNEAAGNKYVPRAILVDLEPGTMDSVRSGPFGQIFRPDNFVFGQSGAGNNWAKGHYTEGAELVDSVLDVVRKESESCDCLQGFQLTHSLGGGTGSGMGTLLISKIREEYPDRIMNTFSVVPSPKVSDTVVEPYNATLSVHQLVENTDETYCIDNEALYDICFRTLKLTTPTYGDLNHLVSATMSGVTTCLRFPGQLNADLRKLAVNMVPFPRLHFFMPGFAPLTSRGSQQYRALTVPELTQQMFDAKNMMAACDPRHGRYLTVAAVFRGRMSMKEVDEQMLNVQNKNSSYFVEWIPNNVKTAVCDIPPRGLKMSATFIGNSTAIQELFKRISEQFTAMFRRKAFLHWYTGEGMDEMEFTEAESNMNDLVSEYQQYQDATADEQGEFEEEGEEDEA

SMILES | pIC50
COC1CC(NS(=O)(=O)c2cccc(C(=O)N3CC4(CCC5(CC5)CC4)c4cc(NS(C)(=O)=O)ccc43)c2)C1 (centres unmarked) [Compound 222, N-(3-methoxycyclobutyl)-3-(5″- (methylsulfonamido)dispiro[cyclopropane-1,1′-cyclohexane-4′,3″-indoline]-1″-carbonyl)benzenesulfonamide] | 7.00
CC1CCC2(CC1)CN(C(=O)c1cccc(S(=O)(=O)N3CCC(F)(F)CC3)c1)c1ccc(Br)cc12 (centres unmarked) [Compound 15, (5′-bromo-4-methylspiro[cyclohexane-1,3′-indolin]-1′-yl)(3-((4,4-difluoropiperidin-1-yl)sulfonyl)phenyl)methanone] | 6.13

Same assay, conditions: KIF18A microtubule-dependent ATPase activity, biochemical assay

SMILES | pIC50
CS(=O)(=O)Nc1ccc2c(c1)C1(CCC3(CC3)CC1)CN2C(=O)c1cccc(CN2CCC(F)(F)CC2)n1 [Compound 342, N-(1″-(6-((4,4-difluoropiperidin-1-yl)methyl)picolinoyl)dispiro[cyclopropane-1,1′-cyclohexane-4′,3″-indolin]-5″- yl)methanesulfonamide] | 7.70
CC(O)(c1cccc(C(=O)N2CC3(CCC4(CC4)CC3)c3cc(NS(C)(=O)=O)ccc32)c1)C1CCCC1 (centres unmarked) [Compound 331, N-(1″-(3-(1-cyclopentyl-1-hydroxyethyl)benzoyl)dispiro[cyclopropane-1,1′-cyclohexane-4′,3″-indolin]-5″-yl)methanesulfonamide] | 7.46
CC1CCN(S(=O)(=O)c2cccc(C(=O)N3CC4(CCC5(CC5)CC4)c4cc(NS(C)(=O)=O)ccc43)c2)C1 (centres unmarked) [Compound 249, N-(1″-(3-((3-methylpyrrolidin-1-yl)sulfonyl)benzoyl)dispiro[cyclopropane-1,1′-cyclohexane-4′,3″-indolin]-5″- yl)methanesulfonamide] | 8.05
CC(C)(C)NS(=O)(=O)c1ccc(C(=O)N2CC3(CCC4(CC4)CC3)c3cc(NS(C)(=O)=O)ccc32)o1 [Compound 299, N-(tert-butyl)-5-(5″- (methylsulfonamido)dispiro[cyclopropane-1,1′-cyclohexane-4′,3″-indoline]-1″-carbonyl)furan-2-sulfonamide] | 7.85
CS(=O)(=O)Nc1ccc2c(c1)C1(CCC3(CC3)CC1)CN2C(=O)c1cccc(S(=O)(=O)NC2CC(O)C2)c1 (centres unmarked) [Compound 218, N-(3-hydroxycyclobutyl)-3-(5″- (methylsulfonamido)dispiro[cyclopropane-1,1′-cyclohexane-4′,3″-indoline]-1″-carbonyl)benzenesulfonamide] | 7.00
O=C(c1cccc(S(=O)(=O)NC2CC(F)(F)C2)c1)N1CC2(CCC3(CC3)CC2)c2cc(NS(=O)(=O)CCO)ccc21 [Compound 230, N-(3,3-difluorocyclobutyl)-3-(5″-((2-hydroxyethyl)sulfonamido)dispiro [cyclopropane-1,1′-cyclohexane-4′,3″- indoline]-1″- carbonyl)benzenesulfonamide] | 7.85
C[C@H](c1cccc(C(=O)N2CC3(CCC4(CC4)CC3)c3cc(NS(C)(=O)=O)ccc32)c1)N1CCC(F)(F)CC1 (single isomer, unassigned) [Compound 341b] | 7.62
CC(C)(C)NS(=O)(=O)c1cc(C(=O)N2CC3(CCC(F)(F)CC3)c3cc(NS(C)(=O)=O)ccc32)cs1 [Compound 277, N-(tert-butyl)-4-(4,4-difluoro-5′-(methylsulfonamido)spiro[cyclohexane-1,3′-indoline]-1′-carbonyl)thiophene-2-sulfonamide] | 7.39
CC(C)(C)[C@@H](O)c1ccc(C(=O)N2CC3(CCC4(CC4)CC3)c3cc(NS(=O)(=O)CCO)ccc32)o1 (single isomer, unassigned) [Compound 371a] | 7.52
CC(C)(C)NS(=O)(=O)c1cccc(C(=O)N2C[C@]3(CC[C@H](C(F)(F)F)CC3)c3cc(NS(C)(=O)=O)ccc32)c1 [Compound 361a] | 7.82
CS(=O)(=O)Nc1ccc2c(c1)C1(CCCCC1)CN2C(=O)c1cccc(S(=O)(=O)N2CCC2)c1 [Compound 45, N-(1′-(3-(azetidin-1-ylsulfonyl)benzoyl)spiro[cyclohexane-1,3′-indolin]-5′-yl)methanesulfonamide] | 6.57
CS(=O)(=O)Nc1ccc2c(c1)C1(CCCCC1)CN2C(=O)c1cccc(S(=O)(=O)N2CCCC2)c1 [Compound 241, N-(1′-(3-(pyrrolidin-1-ylsulfonyl)benzoyl)spiro[cyclohexane-1,3′-indolin]-5′-yl)methanesulfonamide] | 6.74
CS(=O)(=O)Nc1ccc2c(c1)C1(CCC3(CC3)CC1)CN2C(=O)c1cccc(S(=N)(=O)C2CCCC2)c1 (centres unmarked) [Compound 287, N-(1″-(3-(cyclopentanesulfonimidoyl)benzoyl)dispiro[cyclopropane-1,1′-cyclohexane-4′,3″-indolin]-5″- yl)methanesulfonamide] | 7.77
CS(=O)(=O)Nc1ccc2c(c1)C1(CCC3(CC3)CC1)CN2C(=O)c1cccc(C(O)C2CCC2)c1 (centres unmarked) [Compound 313, N-(1″-(3-(cyclobutyl(hydroxy)methyl)benzoyl)dispiro[cyclopropane-1,1′-cyclohexane-4′,3″-indolin]-5″- yl)methanesulfonamide] | 7.70
CS(=O)(=O)Nc1ccc2c(c1)C1(CCC3(CC3)CC1)CN2C(=O)c1cccc(S(=O)(=O)NC2CC23CC3)c1 (centres unmarked) [Compound 225, 3-(5″-(methylsulfonamido)dispiro [cyclopropane-1,1′-cyclohexane-4′,3″- indoline]-1″-carbonyl)-N-(spiro[2.2]pentan-1-yl)benzenesulfonamide] | 8.12
CC(C)(C)NS(=O)(=O)c1ccc(F)c(C(=O)N2CC3(CCCCC3)c3cc(NS(C)(=O)=O)ccc32)c1 [Compound 97, N-(tert-butyl)-4-fluoro-3-(5′-(methylsulfonamido)spiro[cyclohexane-1,3′-indoline]-1′-carbonyl)benzenesulfonamide] | 6.07
CCS(=O)(=O)Nc1ccc2c(c1)C1(CCC(F)(F)CC1)CN2C(=O)c1cc(S(=O)(=O)N2CC3(CCC3)C2)cs1 [Compound 272, N-(1′-(4-((2-azaspiro[3.3]heptan-2-yl)sulfonyl)thiophene-2-carbonyl)-4,4-difluorospiro[cyclohexane-1,3′-indolin]-5′-yl)ethanesulfonamide] | 7.42
CS(=O)(=O)Nc1ccc2c(c1)C1(CCC3(CC3)CC1)CN2C(=O)c1cccc(S(=O)(=O)NC2(C#N)CC2)c1 [Compound 264, N-(1-cyanocyclopropyl)-3-(5″- (methylsulfonamido)dispiro[cyclopropane-1,1′-cyclohexane-4′,3″-indoline]-1″-carbonyl)benzenesulfonamide] | 7.46
CS(=O)(=O)Nc1ccc2c(c1)C1(CCC3(CC3)CC1)CN2C(=O)c1csc(S(=O)(=O)C2CCCC2)c1 [Compound 330, N-(1″-(5-(cyclopentylsulfonyl)thiophene-3-carbonyl)dispiro[cyclopropane-1,1′-cyclohexane-4′,3″-indolin]-5″- yl)methanesulfonamide] | 7.92
CS(=O)(=O)Nc1ccc2c(c1)C1(CCCCC1)CN2C(=O)c1csc(S(=O)(=O)NC2CCC2)c1 [Compound 284, N-cyclobutyl-4-(5′-(methylsulfonamido)spiro[cyclohexane-1,3′-indoline]-1′-carbonyl)thiophene-2-sulfonamide] | 7.59
CC1(NS(=O)(=O)c2cccc(C(=O)N3CC4(CCC5(CC5)CC4)c4cc(NS(C)(=O)=O)ccc43)c2)CC1 [Compound 216, N-(1-methylcyclopropyl)-3-(5″- (methylsulfonamido)dispiro[cyclopropane-1,1′-cyclohexane-4′,3″-indoline]-1″-carbonyl)benzenesulfonamide] | 8.03
CS(=O)(=O)Nc1ccc2c(c1)C1(CCCCC1)CN2C(=O)c1cccc(S(=O)(=O)N2CC3CC3C2)c1 (centres unmarked) [Compound 25, N-(1′-(3-((3-azabicyclo[3.1.0]hexan-3-yl)sulfonyl)benzoyl)spiro[cyclohexane-1,3′-indolin]-5′-yl)methanesulfonamide] | 6.92
Cn1cc(S(=O)(=O)NC(C)(C)C)cc1C(=O)N1CC2(CCCCC2)c2cc(NS(C)(=O)=O)ccc21 [Compound 145, N-(tert-butyl)-1-methyl-5-(5′-(methylsulfonamido)spiro[cyclohexane-1,3′-indoline]-1′-carbonyl)-1H-pyrrole-3-sulfonamide] | 6.54
CS(=O)(=O)Nc1ccc2c(c1)C1(CCC3(CC3)CC1)CN2C(=O)c1cccc(C(O)CN2CC(F)(F)C2)c1 (centres unmarked) [Compound 314, N-(1″-(3-(2-(3,3-difluoroazetidin-1-yl)-1-hydroxyethyl)benzoyl)dispiro[cyclopropane-1,1′-cyclohexane-4′,3″-indolin]-5″-yl)methanesulfonamide] | 7.55
CCS(=O)(=O)Nc1ccc2c(c1)C1(CCC3(CC3)CC1)CN2C(=O)c1ccc([C@H](O)C(C)(C)C)o1 (single isomer, unassigned) [Compound 372a] | 7.43
COCCS(=O)(=O)Nc1ccc2c(c1)C1(CCC3(CC3)CC1)CN2C(=O)c1cccc(S(=O)(=O)NC(C)(C)C)c1 [Compound 300, N-(tert-butyl)-3-(5″-((2-methoxyethyl)sulfonamido)dispiro [cyclopropane-1,1′-cyclohexane-4′,3″- indoline]-1″- carbonyl)benzenesulfonamide] | 7.51
CC1CCC2(CC1)CN(C(=O)c1cccc(S(=O)(=O)N3CCC(F)(F)CC3)c1)c1ccc(Br)cc12 (centres unmarked) [Compound 15, (5′-bromo-4-methylspiro[cyclohexane-1,3′-indolin]-1′-yl)(3-((4,4-difluoropiperidin-1-yl)sulfonyl)phenyl)methanone] | 6.11
O=C(c1cccc(S(=O)(=O)N2CCCCC2)c1)N1CC2(CCCCC2)c2cc(O)ccc21 [Compound 166, (5′-hydroxyspiro[cyclohexane-1,3′-indolin]-1′-yl)(3-(piperidin-1-ylsulfonyl)phenyl)methanone] | 5.96
CC1(NS(=O)(=O)c2cccc(C(=O)N3CC4(CCC5(CC5)CC4)c4cc(NS(C)(=O)=O)ccc43)c2)CSC1 [Compound 226, 3-(5″- (methylsulfonamido)dispiro[cyclopropane-1,1′-cyclohexane-4′,3″-indoline]-1″-carbonyl)-N-(3-methylthietan-3-yl)benzenesulfonamide] | 7.89
CS(=O)(=O)Nc1ccc2c(c1)C1(CCC3(CC3)CC1)CN2C(=O)c1cccc(CN2CCC(F)(F)C2)c1 [Compound 349, N-(1″-(3-((3,3-difluoropyrrolidin-1-yl)methyl)benzoyl)dispiro [cyclopropane-1,1′-cyclohexane-4′,3″-indolin]-5″- yl)methanesulfonamide] | 7.35
